From ChEMBL document CHEMBL5608186, “Design, synthesis and structure-activity relationships of novel non-ketolides: 9-Oxime clarithromycin featured with seven-to thirteen-atom-length diamine linkers at 3-OH” (Eur J Med Chem, 2024)
Values after ≈ are worked out from the molar mass of the structure shown.

Tests used:
Format in all cases: functional
Streptococcus pneumoniae [1] = experiment: Selectivity ratio of MBC for Streptococcus pneumoniae 07P390 harboring c-erm gene to MIC for Streptococcus pneumoniae 07P390 harboring c-erm gene
Streptococcus pneumoniae [2] = experiment: Antibacterial activity against Streptococcus pneumoniae ATCC 49619 incubated for 16 to 20 hrs by CLSI based broth microdilution method; conditions: time 16-20 hrs
Streptococcus pyogenes [3] = experiment: Antibacterial activity against Streptococcus pyogenes 01-968 harboring i-ermB gene incubated for 16 to 20 hrs by CLSI based broth microdilution method; conditions: time 16-20 hrs
Staphylococcus aureus [4] = experiment: Antibacterial activity against methicillin-resistant Staphylococcus aureus PU 32 harboring i-ermA gene incubated for 16 to 20 hrs by CLSI based broth microdilution method; conditions: time 16-20 hrs
Streptococcus pneumoniae [5] = experiment: Bactericidal activity against Streptococcus pneumoniae PU 09 harboring mef gene incubated for 16 to 20 hrs by CLSI based broth microdilution method; conditions: time 16-20 hrs
Streptococcus pyogenes [6] = experiment: Bactericidal activity against Streptococcus pyogenes 01-968 harboring i-ermB gene incubated for 16 to 20 hrs by CLSI based broth microdilution method; conditions: time 16-20 hrs
Streptococcus pneumoniae [7] = experiment: Bactericidal activity against Streptococcus pneumoniae 07P390 harboring c-erm gene incubated for 16 to 20 hrs by CLSI based broth microdilution method; conditions: time 16-20 hrs
Streptococcus pneumoniae [8] = experiment: Antibacterial activity against Streptococcus pneumoniae PU 09 harboring mef gene incubated for 16 to 20 hrs by CLSI based broth microdilution method; conditions: time 16-20 hrs
Haemophilus influenzae [9] = experiment: Selectivity ratio of MBC for Haemophilus influenzae ATCC 49247 to MIC for Haemophilus influenzae ATCC 49247
Haemophilus influenzae [10] = experiment: Antibacterial activity against Haemophilus influenzae ATCC 49247 incubated for 16 to 20 hrs by CLSI based broth microdilution method; conditions: time 16-20 hrs
Streptococcus pneumoniae [11] = experiment: Bactericidal activity against Streptococcus pneumoniae ATCC 49619 incubated for 16 to 20 hrs by CLSI based broth microdilution method; conditions: time 16-20 hrs
Haemophilus influenzae [12] = experiment: Bactericidal activity against Haemophilus influenzae ATCC 49247 incubated for 16 to 20 hrs by CLSI based broth microdilution method; conditions: time 16-20 hrs
Staphylococcus aureus [13] = experiment: Bactericidal activity against methicillin-resistant Staphylococcus aureus PU 20 harboring c-ermA gene incubated for 16 to 20 hrs by CLSI based broth microdilution method; conditions: time 16-20 hrs
Streptococcus pneumoniae [14] = experiment: Antibacterial activity against Streptococcus pneumoniae 07P390 harboring c-erm gene incubated for 16 to 20 hrs by CLSI based broth microdilution method; conditions: time 16-20 hrs
Staphylococcus aureus [15] = experiment: Antibacterial activity against methicillin-resistant Staphylococcus aureus PU 20 harboring c-ermA gene incubated for 16 to 20 hrs by CLSI based broth microdilution method; conditions: time 16-20 hrs
Streptococcus pneumoniae [16] = experiment: Selectivity ratio of MBC for Streptococcus pneumoniae ATCC 49619 to MIC for Streptococcus pneumoniae ATCC 49619
Streptococcus pyogenes [17] = experiment: Selectivity ratio of MBC for Streptococcus pyogenes 01-968 harboring i-ermB gene to MIC for Streptococcus pyogenes 01-968 harboring i-ermB gene
Staphylococcus aureus [18] = experiment: Bactericidal activity against methicillin-resistant Staphylococcus aureus PU 32 harboring i-ermA gene incubated for 16 to 20 hrs by CLSI based broth microdilution method; conditions: time 16-20 hrs
Streptococcus pneumoniae [19] = experiment: Selectivity ratio of MBC for Streptococcus pneumoniae PU 09 harboring mef gene to MIC for Streptococcus pneumoniae PU 09 harboring mef gene
Staphylococcus aureus [20] = experiment: Selectivity ratio of MBC for methicillin-resistant Staphylococcus aureus PU 32 harboring i-ermA gene to MIC for methicillin-resistant Staphylococcus aureus PU 32 harboring i-ermA gene
Staphylococcus aureus [21] = experiment: Selectivity ratio of MBC for methicillin-resistant Staphylococcus aureus PU 20 harboring c-ermA gene to MIC for methicillin-resistant Staphylococcus aureus PU 20 harboring c-ermA gene

Structure (SMILES)	Selectivity ratio (Streptococcus pneumoniae [1])	MIC (Streptococcus pneumoniae [2]) [µg/mL]	MIC (Streptococcus pyogenes [3]) [µg/mL]	MIC (Staphylococcus aureus [4]) [µg/mL]	MBC (Streptococcus pneumoniae [5]) [µg/mL]	MBC (Streptococcus pyogenes [6]) [µg/mL]	MBC (Streptococcus pneumoniae [7]) [µg/mL]	MIC (Streptococcus pneumoniae [8]) [µg/mL]	Selectivity ratio (Haemophilus influenzae [9])	MIC (Haemophilus influenzae [10]) [µg/mL]	MBC (Streptococcus pneumoniae [11]) [µg/mL]	MBC (Haemophilus influenzae [12]) [µg/mL]	MBC (Staphylococcus aureus [13]) [µg/mL]	MIC (Streptococcus pneumoniae [14]) [µg/mL]	MIC (Staphylococcus aureus [15]) [µg/mL]	Selectivity ratio (Streptococcus pneumoniae [16])	Selectivity ratio (Streptococcus pyogenes [17])	MBC (Staphylococcus aureus [18]) [µg/mL]	Selectivity ratio (Streptococcus pneumoniae [19])	Selectivity ratio (Staphylococcus aureus [20])	also measured
CC[C@H]1OC(=O)[C@H](C)[C@@H](OC(=O)CCNCCCCNc2cc3c(cc2F)c(=O)c(C(=O)O)cn3C2CC2)[C@H](C)[C@@H](O[C@@H]2O[C@H](C)C[C@H](N(C)C)[C@H]2O)[C@](C)(OC)C[C@@H](C)/C(=N\OC/C=C/c2ccc3c(c2)c(=O)c(C(N)=O)cn3CC)[C@H](C)[C@H]2OC(=O)O[C@@]21C	8	0.06 (≈ 0.0472 µM)	0.25 (≈ 0.196 µM)	64 (≈ 50.3 µM)	0.06 (≈ 0.0472 µM)	> 2	2 (≈ 1.57 µM)	0.06 (≈ 0.0472 µM)	1	8 (≈ 6.29 µM)	0.12 (≈ 0.0943 µM)	8 (≈ 6.29 µM)	> 256	0.25 (≈ 0.196 µM)	> 256	2	>8	> 256	1	>4	
CC[C@H]1OC(=O)[C@H](C)[C@@H](OC(=O)CCN2CCN(c3cc4c(cc3F)c(=O)c(C(=O)O)cn4C3CC3)CC2)[C@H](C)[C@@H](O[C@@H]2O[C@H](C)C[C@H](N(C)C)[C@H]2O)[C@](C)(OC)C[C@@H](C)/C(=N\OC/C=C/c2cncc(C(=O)NC)c2)[C@H](C)[C@H]2OC(=O)O[C@@]21C	>8	0.03 (≈ 0.0252 µM)	8 (≈ 6.72 µM)	64 (≈ 53.8 µM)	0.5 (≈ 0.42 µM)	> 64	> 16	0.12 (≈ 0.101 µM)	1	4 (≈ 3.36 µM)	0.06 (≈ 0.0504 µM)	4 (≈ 3.36 µM)	> 256	2 (≈ 1.68 µM)	> 256	2	>8	> 256	4	>4	
CC[C@H]1OC(=O)[C@H](C)[C@@H](OC(=O)Cc2ccccn2)[C@H](C)[C@@H](O[C@@H]2O[C@H](C)C[C@H](N(C)C)[C@H]2O)[C@](C)(OC(=O)CCN2CCN(c3c(F)cc4c(=O)c(C(=O)O)cn(C5CC5)c4c3OC)CC2C)C[C@@H](C)CN(C)[C@H](C)[C@@H](O)[C@]1(C)O (some centres not stated)	1	0.5 (≈ 0.439 µM)	8 (≈ 7.02 µM)	128 (≈ 112 µM)	8 (≈ 7.02 µM)	> 64	8 (≈ 7.02 µM)	2 (≈ 1.76 µM)	1	0.5 (≈ 0.439 µM)	1 (≈ 0.878 µM)	0.5 (≈ 0.439 µM)	8 (≈ 7.02 µM)	8 (≈ 7.02 µM)	8 (≈ 7.02 µM)	2	>8	> 256	4		Selectivity ratio (Staphylococcus aureus [21]): 1
CC[C@H]1OC(=O)[C@H](C)[C@@H](OC(=O)CCN2CCN(c3c(F)cc4c(=O)c(C(=O)O)cn(C5CC5)c4c3OC)CC2C)[C@H](C)[C@@H](O[C@@H]2O[C@H](C)C[C@H](N(C)C)[C@H]2O)[C@](C)(OC)C[C@@H](C)/C(=N\OCC#Cc2cncc(C(=O)NC)c2)[C@H](C)[C@H]2OC(=O)O[C@@]21C (some centres not stated)	>8	0.5 (≈ 0.406 µM)	16 (≈ 13 µM)	> 256	4 (≈ 3.25 µM)	> 128	> 128	1 (≈ 0.811 µM)	1	2 (≈ 1.62 µM)	1 (≈ 0.811 µM)	2 (≈ 1.62 µM)	32 (≈ 26 µM)	16 (≈ 13 µM)	32 (≈ 26 µM)	2	>8	> 256	4		Selectivity ratio (Staphylococcus aureus [21]): 1
CC[C@H]1OC(=O)[C@H](C)[C@@H](OC(=O)CCN2CCN(c3cc4c(cc3F)c(=O)c(C(=O)O)cn4C3CC3)CC2)[C@H](C)[C@@H](O[C@@H]2O[C@H](C)C[C@H](N(C)C)[C@H]2O)[C@](C)(OC)C[C@@H](C)/C(=N\OCCCc2cncc(C(=O)NC)c2)[C@H](C)[C@H]2OC(=O)O[C@@]21C	8	0.016 (≈ 0.0134 µM)	4 (≈ 3.35 µM)	64 (≈ 53.7 µM)	0.12 (≈ 0.101 µM)	> 32	16 (≈ 13.4 µM)	0.03 (≈ 0.0252 µM)	1	2 (≈ 1.68 µM)	0.03 (≈ 0.0252 µM)	2 (≈ 1.68 µM)	> 256	2 (≈ 1.68 µM)	64 (≈ 53.7 µM)	2	>8	> 256	4	>4	Selectivity ratio (Staphylococcus aureus [21]): >4
CC[C@H]1OC(=O)[C@H](C)[C@@H](OC(=O)CCNCCCNc2cc3c(=O)c(C(=O)O)cn(C4CC4)c3cc2Cl)[C@H](C)[C@@H](O[C@@H]2O[C@H](C)C[C@H](N(C)C)[C@H]2O)[C@](C)(OC)C[C@@H](C)/C(=N\OC)[C@H](C)[C@H]2OC(=O)O[C@@]21C	2	0.25 (≈ 0.242 µM)	4 (≈ 3.87 µM)	32 (≈ 30.9 µM)	2 (≈ 1.93 µM)	16 (≈ 15.5 µM)	16 (≈ 15.5 µM)	2 (≈ 1.93 µM)	1	256 (≈ 247 µM)	0.5 (≈ 0.483 µM)	256 (≈ 247 µM)	256 (≈ 247 µM)	8 (≈ 7.73 µM)	128 (≈ 124 µM)	2	4	> 256	1	>8	Selectivity ratio (Staphylococcus aureus [21]): 2
CC[C@H]1OC(=O)[C@H](C)[C@@H](OC(=O)CCNCCCCNc2cc3c(cc2F)c(=O)c(C(=O)O)cn3C2CC2)[C@H](C)[C@@H](O[C@@H]2O[C@H](C)C[C@H](N(C)C)[C@H]2O)[C@](C)(OC)C[C@@H](C)/C(=N\OC/C=C/c2cncc(C(=O)NC)c2)[C@H](C)[C@H]2OC(=O)O[C@@]21C	1	≤ 0.008	0.12 (≈ 0.101 µM)	32 (≈ 26.8 µM)	0.06 (≈ 0.0503 µM)	> 1	2 (≈ 1.68 µM)	0.06 (≈ 0.0503 µM)	2	2 (≈ 1.68 µM)	0.008 (≈ 0.00671 µM)	4 (≈ 3.35 µM)	> 256	2 (≈ 1.68 µM)	> 256	>=1	>8	> 256	1	>8	
